According to PubChem BioAssay AID248 (DTP/NCI, 2004):
Values joined by “and” are separate entries in the source; they are usually repeats but may differ in a detail not shown here. Equal entries are not always repeated. Inconclusive results and toxic doses are left out. Rule as the data show it: active = T/C of 150% or more; inactive = T/C below 125%.

Test system: L1210 leukemia ip in BDF1 mice, survival T/C
Experiment: NCI In Vivo Anticancer Drug Screen. Data for tumor model L1210 Leukemia (intraperitoneal) in B6D2F1 (BDF1) mice
Settings: endpoint: mean survival time, higher = longer survival
How it was run: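 Ratio derived from survival: compound-dosed mice over vehicle-dosed mice, all bearing a transplantable tumor.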

[1] = dose: 100.0 mg/kg/injection, schedule: Q01DX001 (ip), vehicle: carboxymethylcellulose (CMC)
[2] = dose: 200.0 mg/kg/injection, schedule: Q01DX001 (ip), vehicle: carboxymethylcellulose (CMC)
[3] = dose: 400.0 mg/kg/injection, schedule: Q01DX001 (ip), vehicle: carboxymethylcellulose (CMC)
[4] = dose: 100.0 mg/kg/injection, schedule: Q04DX003 (ip), vehicle: Klucel (hydroxypropylcellulose) (HPC)
[5] = dose: 200.0 mg/kg/injection, schedule: Q04DX003 (ip), vehicle: Klucel (hydroxypropylcellulose) (HPC)
[6] = dose: 100.0 mg/kg/injection, schedule: Q01DX001 (ip), vehicle: saline
[7] = dose: 200.0 mg/kg/injection, schedule: Q01DX001 (ip), vehicle: saline
[8] = dose: 6.25 mg/kg/injection, schedule: Q01DX009 (ip), vehicle: saline
[9] = dose: 12.5 mg/kg/injection, schedule: Q01DX009 (ip), vehicle: saline
[10] = dose: 25.0 mg/kg/injection, schedule: Q01DX009 (ip), vehicle: other

Measured: T/C

CS(=O)(=O)OCCCCCOS(C)(=O)=O
inactive: dose: 5.0 mg/kg/injection, schedule: Q01DX001 (ip), vehicle: carboxymethylcellulose (CMC) 97 % of control | dose: 6.0 mg/kg/injection, schedule: Q01DX015 (ip), vehicle: saline 101 % of control | dose: 10.0 mg/kg/injection, schedule: Q01DX001 (ip), vehicle: carboxymethylcellulose (CMC) 100 % of control | dose: 12.0 mg/kg/injection, schedule: Q01DX015 (ip), vehicle: saline 110 % of control | dose: 20.0 mg/kg/injection, schedule: Q01DX001 (ip), vehicle: carboxymethylcellulose (CMC) 100 % of control | dose: 40.0 mg/kg/injection, schedule: Q01DX001 (ip), vehicle: carboxymethylcellulose (CMC) 101 % of control | dose: 50.0 mg/kg/injection, schedule: Q01DX015 (ip), vehicle: saline 101 % of control

C=Cc1cc[n+](Cc2ccc(C[n+]3ccc(C=C)cc3)cc2)cc1
inactive: [1] 91 % of control | [2] 91 % of control | [3] 87 % of control

O=c1c2ccccc2c2ccccc2n1C(c1ccccc1)c1ccccc1
inactive: [4] 98 % of control | [5] 88 % of control | dose: 400.0 mg/kg/injection, schedule: Q04DX003 (ip), vehicle: Klucel (hydroxypropylcellulose) (HPC) 88 % of control

NC(=O)Nc1ncn[nH]1
inactive: dose: 100.0 mg/kg/injection, schedule: Q04DX002 (ip), vehicle: saline with Tween-80 95 % of control | dose: 200.0 mg/kg/injection, schedule: Q04DX002 (ip), vehicle: saline with Tween-80 95 % of control | dose: 400.0 mg/kg/injection, schedule: Q04DX002 (ip), vehicle: saline with Tween-80 95 % of control

CN(C)CCCNC1=C(Cl)C(=O)C(NCCCN(C)C)=C(Cl)C1=O
inactive: dose: 100.0 mg/kg/injection, schedule: Q04DX003 (ip), vehicle: acetone 89 % of control

N#CCCNC(=O)Nc1cccc2ccccc12
inactive: [1] 96 % of control | [2] 100 % of control | [3] 96 % of control

CCCCCC[Si](C)(C)C
inactive: [1] 89 % of control | [2] 91 % of control | [3] 89 % of control

CC(CC(=O)O)C1Nc2ccccc2S(=O)(=O)C(c2ccccc2)C1=O (stereo unspecified)
inactive: [4] 95 % of control and 100 % of control | [5] 99 % of control

Nc1ncc([N+](=O)[O-])s1
inactive: dose: 25.0 mg/kg/injection, schedule: Q04DX002 (ip), vehicle: Klucel (hydroxypropylcellulose) (HPC) 95 % of control | dose: 50.0 mg/kg/injection, schedule: Q01DX001 (ip), vehicle: saline 98 % of control | dose: 50.0 mg/kg/injection, schedule: Q04DX002 (ip), vehicle: Klucel (hydroxypropylcellulose) (HPC) 98 % of control | [6] 98 % of control | dose: 100.0 mg/kg/injection, schedule: Q04DX002 (ip), vehicle: Klucel (hydroxypropylcellulose) (HPC) 115 % of control | [7] 98 % of control

CC1(C)C(=O)CC[C@@]2(C)C1=CC[C@@H]1[C@@H]2CC[C@@]2(C)[C@H]1CC[C@]2(C)O
inactive: dose: 50.0 mg/kg/injection, schedule: Q01DX Z (sc), vehicle: steriod suspending solution 91 % of control | dose: 250.0 mg/kg/injection, schedule: Q01DX Z (sc), vehicle: steriod suspending solution 96 % of control | dose: 500.0 mg/kg/injection, schedule: Q01DX Z (sc), vehicle: steriod suspending solution 101 % of control

CCN(CCNS(C)(=O)=O)c1ccc(N)c(C)c1
inactive: dose: 3.12 mg/kg/injection, schedule: Q01DX009 (ip), vehicle: saline 101 % of control | [8] 91 % of control | [9] 99 % of control and 92 % of control

Cc1cccc2nc(-c3ccccc3)ccc12
inactive: dose: 6.0 mg/kg/injection, schedule: Q01DX009 (ip), vehicle: other 100 % of control | dose: 12.0 mg/kg/injection, schedule: Q01DX009 (ip), vehicle: other 92 % of control | dose: 12.0 mg/kg/injection, schedule: Q04DX003 (ip), vehicle: saline 92 % of control | [10] 94 % of control | dose: 25.0 mg/kg/injection, schedule: Q04DX003 (ip), vehicle: saline 98 % of control

CC(C)OC(=O)COc1ccc(Cl)cc1
inactive: dose: 100.0 mg/kg/injection, schedule: Q01DX009 (ip), vehicle: carboxymethylcellulose (CMC) 101 % of control and 102 % of control | dose: 100.0 mg/kg/injection, schedule: Q04DX002 (ip), vehicle: carboxymethylcellulose (CMC) 101 % of control and 105 % of control | dose: 100.0 mg/kg/injection, schedule: Q04DX003 (ip), vehicle: carboxymethylcellulose (CMC) 102 % of control | dose: 200.0 mg/kg/injection, schedule: Q01DX009 (ip), vehicle: carboxymethylcellulose (CMC) 101 % of control and 91 % of control | dose: 200.0 mg/kg/injection, schedule: Q04DX002 (ip), vehicle: carboxymethylcellulose (CMC) 102 % of control and 106 % of control | dose: 200.0 mg/kg/injection, schedule: Q04DX003 (ip), vehicle: carboxymethylcellulose (CMC) 104 % of control | dose: 400.0 mg/kg/injection, schedule: Q01DX009 (ip), vehicle: carboxymethylcellulose (CMC) 108 % of control and 88 % of control | dose: 400.0 mg/kg/injection, schedule: Q04DX002 (ip), vehicle: carboxymethylcellulose (CMC) 98 % of control and 108 % of control | dose: 400.0 mg/kg/injection, schedule: Q04DX003 (ip), vehicle: carboxymethylcellulose (CMC) 101 % of control

Cc1cc([N+](=O)[O-])ccc1NC(=O)C(Br)C(Br)C(=O)O (stereo unspecified)
inactive: [10] 101 % of control | dose: 50.0 mg/kg/injection, schedule: Q01DX009 (ip), vehicle: other 102 % of control | dose: 100.0 mg/kg/injection, schedule: Q01DX009 (ip), vehicle: other 93 % of control and 94 % of control

COC1OCC(COC(=O)c2ccc([N+](=O)[O-])cc2)C1OC(=O)c1ccc([N+](=O)[O-])cc1 (stereo unspecified)
inactive: [1] 88 % of control | [2] 88 % of control

COC(=O)C1C(=O)OC(C)(C)C1c1ccccc1 (stereo unspecified)
inactive: dose: 44.0 mg/kg/injection, schedule: Q01DX001 (ip), vehicle: saline 95 % of control | dose: 66.0 mg/kg/injection, schedule: Q01DX001 (ip), vehicle: saline 101 % of control | [6] 100 % of control | dose: 150.0 mg/kg/injection, schedule: Q01DX001 (ip), vehicle: saline 103 % of control | [7] 91 % of control | dose: 400.0 mg/kg/injection, schedule: Q01DX001 (ip), vehicle: saline 91 % of control

Cc1cc(Oc2ccc(Cl)cc2NC(=O)Nc2cccc(C(F)(F)F)c2)cc(S(=O)(=O)O)c1Cl
inactive: dose: 25.0 mg/kg/injection, schedule: Q01DX009 (ip), vehicle: saline sonified 101 % of control | dose: 50.0 mg/kg/injection, schedule: Q01DX009 (ip), vehicle: saline sonified 98 % of control | dose: 100.0 mg/kg/injection, schedule: Q01DX009 (ip), vehicle: saline sonified 90 % of control

CN1C2CCC1CC(OC1c3ccccc3CCc3ccccc31)C2 (stereo unspecified)
inactive: [8] 105 % of control | [9] 104 % of control | dose: 25.0 mg/kg/injection, schedule: Q01DX009 (ip), vehicle: saline 101 % of control | dose: 50.0 mg/kg/injection, schedule: Q01DX009 (ip), vehicle: saline 101 % of control

NCC(=O)NC(CO)C(=O)O (stereo unspecified)
inactive: dose: 100.0 mg/kg/injection, schedule: Q01DX009 (ip), vehicle: saline 106 % of control | dose: 100.0 mg/kg/injection, schedule: Q04DX003 (ip), vehicle: saline 110 % of control | dose: 200.0 mg/kg/injection, schedule: Q01DX009 (ip), vehicle: saline 101 % of control | dose: 200.0 mg/kg/injection, schedule: Q04DX003 (ip), vehicle: saline 103 % of control | dose: 400.0 mg/kg/injection, schedule: Q01DX009 (ip), vehicle: saline 95 % of control | dose: 400.0 mg/kg/injection, schedule: Q04DX003 (ip), vehicle: saline 100 % of control

CC(C)c1ccc2cc(C(C)C)ccc2c1
inactive: dose: 100.0 mg/kg/injection, schedule: Q01DX009 (ip), vehicle: saline with Tween-80 107 % of control | dose: 200.0 mg/kg/injection, schedule: Q01DX009 (ip), vehicle: saline with Tween-80 92 % of control | dose: 400.0 mg/kg/injection, schedule: Q01DX009 (ip), vehicle: saline with Tween-80 92 % of control

CC1CN=C(c2ccc(O)c(O)c2O)S1 (stereo unspecified)
inactive: dose: 75.0 mg/kg/injection, schedule: Q04DX002 (ip), vehicle: saline with Tween-80 101 % of control | dose: 150.0 mg/kg/injection, schedule: Q04DX002 (ip), vehicle: saline with Tween-80 101 % of control | dose: 300.0 mg/kg/injection, schedule: Q04DX002 (ip), vehicle: saline with Tween-80 93 % of control
